Assays:
[1] = target: cAMP-specific 3',5'-cyclic phosphodiesterase 4B (Homo sapiens, UniProt Q07343); test: Inhibition of full length recombinant human PDE4B1 expressed in Sf21 insect cells using cAMP as substrate by scintillation proximity assay
Phosphodiesterase = target: T1, Phosphodiesterase (Trypanosoma brucei, UniProt Q8WQX9); test: Inhibition of full length Trypanosoma brucei PDEB1 expressed in Sf21 insect cells using cAMP as substrate by scintillation proximity assay
T1 sequence (Q8WQX9 whole entry): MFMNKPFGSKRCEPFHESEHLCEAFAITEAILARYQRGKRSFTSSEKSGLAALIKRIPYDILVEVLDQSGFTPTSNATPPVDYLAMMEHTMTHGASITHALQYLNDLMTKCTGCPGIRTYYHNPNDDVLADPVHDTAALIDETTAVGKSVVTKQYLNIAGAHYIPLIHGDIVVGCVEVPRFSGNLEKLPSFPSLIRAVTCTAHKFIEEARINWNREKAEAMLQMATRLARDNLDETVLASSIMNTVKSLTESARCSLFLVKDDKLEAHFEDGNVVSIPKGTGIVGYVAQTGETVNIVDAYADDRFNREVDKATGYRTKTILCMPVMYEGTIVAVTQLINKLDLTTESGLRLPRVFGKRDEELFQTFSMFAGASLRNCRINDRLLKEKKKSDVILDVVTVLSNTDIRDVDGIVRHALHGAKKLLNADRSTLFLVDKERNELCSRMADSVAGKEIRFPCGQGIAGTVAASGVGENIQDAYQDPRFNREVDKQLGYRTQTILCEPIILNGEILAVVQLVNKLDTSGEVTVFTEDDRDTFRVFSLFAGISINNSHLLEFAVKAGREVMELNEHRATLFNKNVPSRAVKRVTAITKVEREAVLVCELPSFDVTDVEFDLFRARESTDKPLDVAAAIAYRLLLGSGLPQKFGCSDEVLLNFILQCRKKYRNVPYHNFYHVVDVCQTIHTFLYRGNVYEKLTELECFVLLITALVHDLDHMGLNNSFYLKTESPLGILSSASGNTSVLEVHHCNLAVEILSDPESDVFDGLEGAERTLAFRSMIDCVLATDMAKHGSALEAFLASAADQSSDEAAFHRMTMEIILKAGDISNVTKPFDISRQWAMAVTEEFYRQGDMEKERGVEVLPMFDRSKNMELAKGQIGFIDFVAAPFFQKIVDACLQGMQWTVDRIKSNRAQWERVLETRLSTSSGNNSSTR

Chain of cAMP-specific 3',5'-cyclic phosphodiesterase 4B (Q07343 whole entry): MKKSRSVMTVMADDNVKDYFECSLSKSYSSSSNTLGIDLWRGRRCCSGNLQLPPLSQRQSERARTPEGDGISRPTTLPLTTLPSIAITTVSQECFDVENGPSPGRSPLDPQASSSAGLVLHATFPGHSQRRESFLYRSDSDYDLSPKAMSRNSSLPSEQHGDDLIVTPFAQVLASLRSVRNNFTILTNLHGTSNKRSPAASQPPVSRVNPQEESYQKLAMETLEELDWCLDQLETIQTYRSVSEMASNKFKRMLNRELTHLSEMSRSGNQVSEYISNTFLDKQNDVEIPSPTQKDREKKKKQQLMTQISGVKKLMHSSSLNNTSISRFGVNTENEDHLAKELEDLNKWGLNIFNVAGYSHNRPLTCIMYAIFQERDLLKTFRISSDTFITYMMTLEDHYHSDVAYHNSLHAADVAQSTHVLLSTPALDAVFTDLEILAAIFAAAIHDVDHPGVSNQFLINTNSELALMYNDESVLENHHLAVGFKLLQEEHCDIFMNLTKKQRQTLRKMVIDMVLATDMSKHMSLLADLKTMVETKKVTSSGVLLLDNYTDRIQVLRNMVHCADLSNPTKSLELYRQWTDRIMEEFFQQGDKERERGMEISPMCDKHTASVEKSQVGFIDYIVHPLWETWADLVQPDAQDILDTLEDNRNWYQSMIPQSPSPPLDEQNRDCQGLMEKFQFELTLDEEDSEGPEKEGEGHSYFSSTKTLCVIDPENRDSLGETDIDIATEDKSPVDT

SMILES	Ki [1] [nM]	Ki (Phosphodiesterase) [nM]
COc1ccc(C2=NN(C3CCCCCC3)C(=O)[C@@H]3CC=CC[C@H]23)cc1-c1ccc(C(=O)NCC(N)=O)cc1	630	40
COc1ccc(C2=NN(C3CCCCCC3)C(=O)[C@@H]3CC=CC[C@H]23)cc1-c1ccc(C(=O)N2CCC(=O)C2)cc1	3160	1000
COc1ccc(C2=NN(C3CCCCCC3)C(=O)[C@@H]3CC=CC[C@H]23)cc1-c1ccc(C(=O)N2CC(=O)N(C)C2)cc1	2510	1580
COc1ccc(C2=NN(C3CCCCCC3)C(=O)[C@@H]3CC=CC[C@H]23)cc1-c1ccc(C(=O)N2CNC(=O)C2)cc1	631	631
